25 compounds from EP2951180B1, “2,6,7,8 SUBSTITUTED PURINES AS HDM2 INHIBITORS” (Merck Sharp & Dohme Corp., priority 2013, dated 2014) can be followed below.

pIC50: −log10 of the molar value. Read-outs that look alike come from different tables or passages of the source.

This assay deals with T1, HDM2 (Homo sapiens, UniProt Q00987).
T1 construct: Thioredoxin (N); made in house; host or cells: E. coli strain BL21(DE3)Rosetta
The experiment in a line: HDM2 FRET assay (inhibition of binding of FITC labeled p53-pocket peptide to HDM2). The conditions noted are these: for pIC50: read-out: FRET IC50. The gist of the method: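 Final: 0.5 nM His-HDM2, 3 nM FITC peptide, 0.25 nM Tb anti-His Ab; PBS, 0.01% BSA, 0.01% Tween-20; 0.1% DMSO.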

Where [1] appears, read: 0.5 nM HDM2 (residues 17 to 125), 3nM peptide, two hour incubation at room temperature.

The pIC50 is −log10 of the IC50, conventionally taken in molar units.

T1 sequence (Q00987 17-125): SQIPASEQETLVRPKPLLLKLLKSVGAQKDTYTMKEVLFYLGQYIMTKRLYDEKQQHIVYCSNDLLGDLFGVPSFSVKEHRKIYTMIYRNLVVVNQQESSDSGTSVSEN

As for `Cc1cccc(-c2nc3nc(C(=O)O)nc(NCC4CCC4)c3n2Cc2ccc(C(F)(F)F)cc2)c1` [Example 6.75, 6-[(cyclobutylmethyl)amino]-8-(3-methylphenyl)-7-[4-(trifluoromethyl)benzyl]-7H-purine-2-carboxylic acid], the pIC50 (Table 6) is 6.78.

As to `C[C@H]1CC[C@H](Cn2c(C(=O)C3CCOCC3)nc3nc(-c4noc(=O)[nH]4)nc(-c4cccc(Cl)c4)c32)CC1` [Example 23.3, 3-[6-(3-chlorophenyl)-7-[(trans-4-methylcyclohexyl)methyl]-8-(tetrahydro-2H-pyran-4-ylcarbonyl)-7H-purin-2-yl]-1,2,4-oxadiazol-5(4H)-one], the pIC50 (Table 23) was 7.67.

As for `Cc1cccc(-c2nc3nc(C(=O)O)nc(N[C@H](C)c4ccccc4)c3n2Cc2ccc(C(F)(F)F)cc2)c1` [Example 6.30, 8-(3-methylphenyl)-6-{[(1R)-1-phenylethyl]amino}-7-[4-(trifluoromethyl)benzyl]-7H-purine-2-carboxylic acid], the negative-log IC50 (pIC50) (Table 6) is 5.83.

For `CC1CN(c2nc3nc(C(=O)O)nc(N[C@H](C)C4CCC4)c3n2Cc2ccc(C(F)(F)F)cc2)CCO1` (stereo partly drawn) [Example 9.20, 6-{[(1R)-1-cyclobutylethyl]amino}-8-(2-methylmorpholin-4-yl)-7-[4-(trifluoromethyl)benzyl]-7H-purine-2-carboxylic acid], the pIC50 (Table 9) is 7.20.

Take `CCN(c1nc(-c2noc(=O)[nH]2)nc2nc(-c3cc(C(C)C)ccn3)n(C[C@H]3CC[C@H](C)CC3)c12)[C@H](C)C1CCC1` [Example 15.24, 3-(6-{[(1R)-1-cyclobutylethyl](ethyl)amino}-7-[(trans-4-methylcyclohexyl)methyl]-8-[4-(1-methylethyl)pyridin-2-yl]-7H-purin-2-yl)-1,2,4-oxadiazol-5(4H)-one]: the pIC50 under setting [1] was 6.15.

On to `COC1(c2nc3nc(-c4noc(=O)[nH]4)nc(N[C@H](C)C4CCC4)c3n2C[C@H]2CC[C@H](C)CC2)CCC1` [Example 22.69, 3-(6-{[(1R)-1-cyclobutylethyl]amino}-8-(1-methoxycyclobutyl)-7-[(trans-4-methylcyclohexyl)methyl] -7H-purin-2-yl)-1,2,4-oxadiazol-5(4H)-one], for which the pIC50 (Table 22) was 8.34.

Turning to `CCS(=O)(=O)c1nc(N[C@H](C)C2CCC2)c2c(n1)nc(N1CCOC[C@H]1c1ccccc1)n2C[C@H]1CC[C@H](C)CC1` [Example 14.5, N-[(1R)-1-cyclobutylethyl]-2-(ethylsulfonyl)-7-[(trans-4-methylcyclohexyl)methyl]-8-[(3R)-3-phenylmorpholin-4-yl]-7H-purin-6-amine], the pIC50 under setting [1] is 7.70.

Consider `CCC1CCCN1c1nc2nc(-c3noc(=O)[nH]3)nc(N[C@H](C)C3CCC3)c2n1C[C@H]1CC[C@H](C)CC1` (stereo partly drawn) [Example 11.33, 3-(6-{[(1R)-1-cyclobutylethyl]amino}-8-(2-ethylpyrrolidin-1-yl)-7-[(trans-4-methylcyclohexyl)methyl]-7H-purin-2-yl)-1,2,4-oxadiazol-5(2H)-one], for which, under “Table 11”, the negative logarithm of the IC50 (pIC50) was 8.27.

With `COc1ccc(C)cc1-c1nc2nc(C(=O)O)nc(N[C@H](C)C3CC3(C)C)c2n1Cc1ccc(C(F)(F)F)cc1` (stereo partly drawn) [Example 6.56, 6-{[(1R)-1-(2,2-dimethylcyclopropyl)ethyl]amino}-8-(2-methoxy-5-methylphenyl)-7-[4-(trifluoromethyl)benzyl]-7H-purine-2-carboxylic acid], the pIC50 (Table 6) was 5.85.

Take `C[C@@H]1COCCN1c1nc2nc(-c3n[nH]c(=O)o3)nc(-c3cccc(Cl)c3)c2n1C[C@H]1CC[C@H](C)CC1` [Example 16.7, 5-(6-(3-chlorophenyl)-7-(((trans)-4-methylcyclohexyl)methyl)-8-((R)-3-methylmorpholino)-7H-purin-2-yl)-1,3,4-oxadiazol-2(3H)-one]: under setting [1], the pIC50 is 7.84.

Turning to `C[C@@H]1COCCN1c1nc2nc(-c3noc(=O)[nH]3)nc(-c3cccc(Cl)c3)c2n1C[C@H]1CC[C@H](C)CC1` [Example 16.6, 3-(6-(3-chlorophenyl)-7-(((trans)-4-methylcyclohexyl)methyl)-8-((R)-3-methylmorpholino)-7H-purin-2-yl)-1,2,4-oxadiazol-5(4H)-one], the pIC50 under setting [1] was 8.09.

For the compound `CCC1CCCCN1c1nc2nc(C(=O)O)nc(N[C@H](C)C3CCC3)c2n1C[C@H]1CC[C@H](C)CC1` (stereo partly drawn) [Example 11.52, 6-{[(1R)-1-cyclobutylethyl]amino}-8-(2-ethylpiperidin-1-yl)-7-[(trans-4-methylcyclohexyl)methyl]-7H-purine-2-carboxylic acid], the pIC50 (Table 11) was 8.47.

On to `CCN(C)c1nc(C(=O)O)nc2nc(-c3cccc(C)c3)n(Cc3ccc(C(F)(F)F)cc3)c12` [Example 6.59, 6-[ethyl(methyl)amino]-8-(3-methylphenyl)-7-[4-(trifluoromethyl)benzyl]-7H-purine-2-carboxylic acid], for which, under “Table 6”, the pIC50 was 6.00.

Turning to `Cc1cccc(-c2nc3nc(C(=O)O)nc(N(C)CC(C)(C)C)c3n2Cc2ccc(C(F)(F)F)cc2)c1` [Example 6.82, 6-[(2,2-dimethylpropyl)(methyl)amino]-8-(3-methylphenyl)-7-[4-(trifluoromethyl)benzyl]-7H-purine-2-carboxylic acid], the pIC50 (Table 6) is 6.05.

Consider `C[C@@H](Nc1nc(S(C)(=O)=O)nc2nc(N3CCOC[C@H]3c3ccccc3)n(C[C@H]3CC[C@H](C)CC3)c12)C1CCC1` [Example 14.1, N-((R)-1-cyclobutylethyl)-7-((trans-4-methylcyclohexyl)methyl)-2-(methylsulfonyl)-8-((R)-3-phenylmorpholino)-7H-purin-6-amine], for which the pIC50 under setting [1] is 7.63.

As for `CCC1=CCC(Cn2c(-c3cc(C(C)C)ccn3)nc3nc(-c4noc(=O)[nH]4)nc(N[C@H](C)C4CCC4)c32)CC1` (stereo partly drawn) [Example 18.25, 3-(6-{[(1R)-1-cyclobutylethyl]amino}-7-[(4-ethylcyclohex-3-en-1-yl)methyl]-8-[4-(1-methylethyl)pyridin-2-yl]-7H-purin-2-yl)-1,2,4-oxadiazol-5(4H)-one], the pIC50 (Table 18) is 7.36.

With `CC(C)c1ccnc(-c2nc3nc(C(=O)O)nc(N[C@H](c4ccccc4)C4CCC4)c3n2Cc2ccc(C(F)(F)F)cc2)c1` [Example 7.16, 6-{[(S)-cyclobutyl(phenyl)methyl]amino}-8-[4-(1-methylethyl)pyridin-2-yl]-7-[4-(trifluoromethyl)benzyl]-7H-purine-2-carboxylic acid], the negative-log IC50 (pIC50) (Table 7) was 7.39.

`C[C@H]1CC[C@H](Cn2c(N3CCOC[C@H]3c3ccccc3)nc3nc(-c4noc(=O)[nH]4)nc(N4CCCC4C4CCC4)c32)CC1` (stereo partly drawn) [Example 11.62, 3-{6-(2-cyclobutylpyrrolidin-1-yl)-7-[(trans-4-methylcyclohexyl)methyl]-8-[(3R)-3-phenylmorpholin-4-yl]-7H -purin-2-yl}-1,2,4-oxadiazol-5(4H)-one]: the pIC50 (Table 11) was 8.11.

Take `Cc1cccc(-c2nc(-c3noc(=O)[nH]3)nc3nc(-c4cc(C(C)C)ccn4)n(C[C@H]4CC[C@H](C)CC4)c23)c1` [Example 16.15, 3-{7-[(trans-4-methylcyclohexyl)methyl]-8-[4-(1-methylethyl)pyridin-2-yl]-6-(3-methylphenyl)-7H-purin-2-yl}-1,2,4-oxadiazol-5(4H)-one]: under setting [1], the negative logarithm of the IC50 (pIC50) was 7.52.

For the compound `Cc1cccc(-c2nc3nc(C(=O)O)nc(N[C@H](C)C4CC4)c3n2Cc2ccc(Cl)c(Cl)c2)c1` [Example 6.16, 6-{[(1R)-1-cyclopropylethyl]amino}-7-(3,4-dichlorobenzyl)-8-(3-methylphenyl)-7H-purine-2-carboxylic acid], under “Table 6”, the negative-log IC50 (pIC50) is 6.33.

With `CCN(CCN1CCCC1)c1nc2nc(-c3noc(=O)[nH]3)nc(N[C@H](C)C3CCC3)c2n1Cc1ccc(C(F)(F)F)cc1` [Example 9.97, 3-(6-{[(1R)-1-cyclobutylethyl]amino}-8-[ethyl(2-pyrrolidin-1-ylethyl)amino]-7-[4-(trifluoromethyl)benzyl]-7H-purin-2-yl)-1,2,4-oxadiazol-5(4H)-one], the pIC50 (Table 9) was 7.62.

In the case of `C[C@@H](Nc1nc(C(=O)O)nc2nc(Nc3ccccc3)n(Cc3ccc(C(F)(F)F)cc3)c12)C1CCC1` [Example 9.21, 6-{[(1R)-1-cyclobutylethyl]amino} -8-(phenylamino)-7-[4-(trifluoromethyl)benzyl]-7H-purine-2-carboxylic acid], the pIC50 (Table 9) is 8.03.

As to `Cc1cccc(-c2nc3nc(C(=O)O)nc(N(C)C(C)C(C)C)c3n2Cc2ccc(C(F)(F)F)cc2)c1` (stereo not shown) [Example 6.81, 6-[(1,2-dimethylpropyl)(methyl)amino]-8-(3-methylphenyl)-7-[4-(trifluoromethyl)benzyl]-7H-purine-2-carboxylic acid], the inhibition at 1 µM (read-out: inh. at 1000 nM (FRET)) was determined as 46%.

Take `C[C@H]1CC[C@H](Cn2c(C3(F)CCC3)nc3nc(-c4n[nH]c(=O)o4)nc(-c4cncc(Cl)c4)c32)CC1` [Example 23.38, 5-{6-(5-chloropyridin-3-yl)-8-(1-fluorocyclobutyl)-7-[(trans-4-methylcyclohexyl)methyl] -7H-purin-2-yl}-1,3,4-oxadiazol-2(3H)-one]: the pIC50 (Table 23) is 7.51.

On to `CC(=O)c1nc2nc(-c3noc(=O)[nH]3)nc(N[C@H](C)C3CCC3)c2n1C[C@H]1CC[C@H](C)CC1` [Example 22.32, 3-(8-acetyl-6-{[(1R)-1-cyclobutylethyl]amino}-7-[(trans-4-methylcyclohexyl)methyl] -7H-purin-2-yl)-1,2,4-oxadiazol-5(2H)-one], for which the pIC50 (Table 22) was 7.60.
